Reference: US10889609B2, “Mannitol-based amphipathic compound and use thereof” (Industry-University Cooperation Foundation Hanyang …, priority 2015, dated 2021)
“And” between values parts separate entries of the source, which are not always exact repeats. Equal values may be shown once. Values belong to the compound of their own block, whether it stands above or below them.

Columns and labels:
[1] = Critical micellar concentration (CMC) by hydrophobic fluorescence stain diphenylhexatriene (DPH); assay type: physicochemical
Source text: A method of measuring the CMC is not particularly limited, but the methods widely known in the related art may be used. For example, the CMC may be measured by a fluorescence detection method using diphenylhexatriene (DPH).
(§1) To determine characteristics of the MNAs of Preparative Example 1 to 10 synthesized according to the synthesis method of Example 1, the molecular weights (M.W.) and critical micellar concentrations (CMCs) of the MNAs and the hydrodynamic radii (Rh) of the formed micelles were measured.
(§2) Specifically, the critical micellar concentration (CMC) was measured using a hydrophobic fluorescence stain (diphenylhexatriene (DPH)), and the hydrodynamic radii (Rh) of the micelles formed by each of the preparations were measured by a dynamic light scattering (DLS) experiment. The measured results were compared to those of DDM that is a conventional amphipathic molecule (a detergent), and are listed in Table 1.

[2] = Hydrodynamic radius and size distribution of micelles by dynamic light scattering (DLS); assay type: physicochemical
Source text: A method of measuring the radius of the micelle is not particularly limited, but the methods widely known in the related art may be used. For example, the radius of the micelle may be measured using a dynamic light scattering (DLS) experiment.
as §1, §2
Meanwhile, the size distributions of the micelles formed by the MNAs were measured using DLS, and the measurement results are shown in FIG. 17. The MNAs were used at a content of 1.0% by weight.

boron transporter (Bor1) = biological target: T1, boron transporter (Bor1) (Arabidopsis thaliana, UniProt Q8VYR7); assay: Structural stability and extraction of Bor1 by heat fluorescence size exclusion chromatography (hFSEC); details: for level of Bor1 protein aggregation after heat treatment: 40° C. for 10 minutes, FIG. 18
T1 construct: made in house; host or cells: Saccharomyces cerevisiae FGY217
T1 sequence (Q8VYR7 whole entry): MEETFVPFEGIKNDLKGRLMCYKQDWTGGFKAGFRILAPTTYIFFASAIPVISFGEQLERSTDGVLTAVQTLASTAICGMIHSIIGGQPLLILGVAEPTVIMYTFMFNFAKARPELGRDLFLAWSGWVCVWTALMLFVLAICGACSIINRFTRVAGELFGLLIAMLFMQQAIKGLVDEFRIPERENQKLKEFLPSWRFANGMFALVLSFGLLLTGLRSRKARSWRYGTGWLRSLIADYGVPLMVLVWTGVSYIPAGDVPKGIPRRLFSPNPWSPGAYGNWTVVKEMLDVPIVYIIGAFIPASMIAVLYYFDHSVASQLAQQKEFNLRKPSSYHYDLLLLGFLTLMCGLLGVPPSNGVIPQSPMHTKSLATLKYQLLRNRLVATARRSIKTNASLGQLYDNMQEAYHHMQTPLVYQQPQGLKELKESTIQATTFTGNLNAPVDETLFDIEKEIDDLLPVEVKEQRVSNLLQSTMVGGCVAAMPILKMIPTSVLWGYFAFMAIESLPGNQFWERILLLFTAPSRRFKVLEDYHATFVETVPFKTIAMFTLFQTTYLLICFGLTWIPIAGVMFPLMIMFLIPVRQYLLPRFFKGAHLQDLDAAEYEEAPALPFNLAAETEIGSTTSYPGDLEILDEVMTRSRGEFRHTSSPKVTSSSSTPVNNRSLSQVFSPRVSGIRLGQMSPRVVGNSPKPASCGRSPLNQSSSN
Experimental: An experiment for measuring the structural stability of a boron transporter (Bor1) by the MNAs was performed. The structural stability of Bor1 was measured using heat fluorescence size exclusion chromatography (hFSEC), and the concentrations of the MNAs and DDM were CMC plus 0.04% by weight. Specifically, Bor1 of Arabidopsis thaliana was expressed in Saccharomyces cerevisiae FGY217 cells as a fusion protein having a C-terminal GFP-His tag. The cells were grown in a -URA medium supplemented with 0.1% glucose. Expression of proteins was induced by adding 2% galactose, and the cells were then cultured at 20° C. for 18 hours. Here, the cell culture was carried out according to the method described in the article by D. Drew et al. (Nat. Protoc. 2008, 3, 784-798.). The cells were collected to prepare membranes, and the cell collection was carried out according to the method described in the article by J. Leung et al. (Protein Expr. Purif. 2010, 72, 139-146.). The membranes including the Bor1-GFP fusion protein were diluted with phosphate-buffered saline (PBS, pH 7.4) until the final concentration of the total proteins reached 2.8 mg/mL. In this case, 1% by weight of DDM or 1% by weight of MNA (MNA-1, MNA-2, MNA-3, MNA-4, MNA-5, MNA-6, or MNA-7) was added to the PBS. Samples were incubated for an hour while shaking at 4° C., and insoluble materials were then removed by centrifugation at 14,000 g and 4° C. for an hour. The supernatant including the dissolved protein samples was heated at 40° C. for 10 minutes, and the strongly aggregated proteins were removed by centrifugation at 14,000 g and 4° C. for 10 minutes. 200 μL of the supernatant of the samples was injected into a Superose 6 10/300 column equilibrated with 20 mM Tris (pH 7.5), 150 mM NaCl, and 0.03% DDM. Each of elution fractions was collected in 200 μL fractions at a retention volume of 6.4 mL (e.g., 6.4 mL after elusion) in a clear bottom 96-well plate. The GFP fluorescence of each of the fractions was measured at an excitation wavelength of 470 nm and an emission wavelength of 512 nm.

[3] = biological target: T2, human β2 adrenergic receptor (β2AR) (Homo sapiens, UniProt P07550); assay: mBBr-β2AR bimane spectra at detergent concentration below CMC; assay type: biochemical; details: detergent diluted to a fiftieth of its CMC, compared to DDM, FIG. 21
T2 construct: made in house
T2 sequence (P07550 whole entry): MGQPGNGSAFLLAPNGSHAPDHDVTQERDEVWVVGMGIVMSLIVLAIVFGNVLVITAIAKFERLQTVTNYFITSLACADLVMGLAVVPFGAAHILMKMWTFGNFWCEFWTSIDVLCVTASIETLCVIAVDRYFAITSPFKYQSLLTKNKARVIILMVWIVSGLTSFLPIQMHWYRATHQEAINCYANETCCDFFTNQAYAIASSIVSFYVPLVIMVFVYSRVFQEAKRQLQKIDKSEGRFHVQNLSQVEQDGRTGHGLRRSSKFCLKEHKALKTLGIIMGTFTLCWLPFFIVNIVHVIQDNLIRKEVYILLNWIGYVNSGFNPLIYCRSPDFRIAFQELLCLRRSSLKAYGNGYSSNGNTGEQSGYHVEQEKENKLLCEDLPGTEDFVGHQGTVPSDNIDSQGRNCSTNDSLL
Experimental: Experiments for comparing the structural changes of the β2AR protein by the MNAs and DDM at a concentration below CMCs of the amphipathic molecules were performed.
Specifically, 0.5 μL of a non-ligand mBBr-labeled receptor dissolved at 50 μNI in a 20×CMC concentration of MNA-5, MNA-6, or MNA-7 was diluted with 500 μL of an NH buffer (20 mM HEPES pH 7.5, and 100 mM NaCl). The proteins were cultured for 30 minutes, and the bimane spectra thereof were measured. The receptor dissolved in 0.1% DDM was diluted with the NH buffer, and used as the control. Data was presented as an average of three separate experiments performed in triplicate.

[4] = biological target: T2, human β2 adrenergic receptor (β2AR); assay: Size exclusion chromatography (SEC) of β2AR protein-detergent complexes (PDCs); details: Superdex-200, FIG. 23
Experimental: An SEC analysis was performed to determine the size of the protein-amphipathic molecule complex (i.e., a protein-detergent complex (PDC)) formed by DDM, MNA-6, or MNA-7.
Specifically, the β2AR dissolved in DDM, MNA-6 or MNA-7 was used as a test sample in the same manner as used in Example 5-3. The sample was loaded onto a Superdex-200 10/300 GL column (GE Healthcare) at 0.5 ml/min, an innate tryptophane fluorescence signal was measured at an excitation wavelength of 295 nm and an emission wavelength of 345 nm. A running buffer includes 20 mM HEPES pH 7.5, 100 mM NaCl, and 20×CMC MNA-6 or MNA-7. A difference in retention volume of the protein samples means a difference in size of the protein-detergent complexes (PDCs) formed in the presence of the amphipathic molecules.

[5] = biological target: T2, human β2 adrenergic receptor (β2AR); assay: Negative-stain electron microscopy (EM) of β2AR dissolved in detergent; details: negative staining, compared to DDM, FIG. 24
Experimental: A β2AR protein analysis test was performed for DDM, MNA-6, or MNA-7 using an electron microscope.
Specifically, samples were prepared using the conventional negative staining protocol disclosed in the article by M. Ohi et al. (Biol. Proced. Online 2004, 6, 23-34.). In summary, 3 μL of β2AR dissolved in DDM, MNA-6, or MNA-7 was pipetted onto a glow-discharged carbon-coated grid, and stained with 1% (w/v) uranyl formate. Thereafter, the β2AR was imaged at room temperature by running a Morgagni 268(D) transmission electron microscope (FEI Company) at 100 kV. The images were recorded at 30,416×calibrated magnification using an Orius SC200W CCD camera (Gatan Inc.).

Structure (SMILES): CCCCCCCCCCCCCCO[C@H]([C@@H](OCCCCCCCCCCCCCC)[C@H](CO[C@@H]1OC(CO)[C@@H](O)C(O)C1O)O[C@@H]1OC(CO)[C@@H](O)C(O)C1O)[C@H](CO[C@@H]1OC(CO)[C@@H](O)C(O)C1O)O[C@@H]1OC(CO)[C@@H](O)C(O)C1O (some centres unmarked) [MNA-7]
CMC value [1]: 1 µM | CMC ([1]; aqueous solution): ~0.001 mM | Rh (nm), hydrodynamic radius of micelles [2]: 3.3 nm and 3.3 ± 0.08 nm | level of Bor1 protein aggregation after heat treatment (boron transporter (Bor1); hFSEC): lower level of Borl aggregation than DDM | stability of β2AR [3]: secured for a prolonged period of time | size of β2AR protein-detergent complexes (PDCs) [4]: smaller in size compared to those formed by DDM | EM image background of dissolved β2AR [5]: uniform background clutter that were relatively smaller in quantity

Structure (SMILES): CCCCCCCCCCO[C@H]([C@@H](OCCCCCCCCCC)[C@H](CO[C@@H]1OC(CO)[C@@H](O)C(O)C1O)O[C@@H]1OC(CO)[C@@H](O)C(O)C1O)[C@H](CO[C@@H]1OC(CO)[C@@H](O)C(O)C1O)O[C@@H]1OC(CO)[C@@H](O)C(O)C1O (some centres unmarked) [MNA-3]
CMC ([1]; aqueous solution): ~0.015 mM | Rh (nm), hydrodynamic radius of micelles [2]: 2.7 nm and 2.7 ± 0.04 nm

Structure (SMILES): CCCCCCCCCCCCCCCCO[C@H]([C@@H](OCCCCCCCCCCCCCCCC)[C@H](CO[C@@H]1OC(CO)[C@@H](O)C(O)C1O)O[C@@H]1OC(CO)[C@@H](O)C(O)C1O)[C@H](CO[C@@H]1OC(CO)[C@@H](O)C(O)C1O)O[C@@H]1OC(CO)[C@@H](O)C(O)C1O (some centres unmarked) [MNA-9]
CMC value [1]: 1 µM | CMC ([1]; aqueous solution): ~0.001 mM | Rh (nm), hydrodynamic radius of micelles [2]: 3.8 nm and 3.8 ± 0.1 nm

Structure (SMILES): CCCCCCCCCCCCO[C@@H]1O[C@H](CO)[C@@H](O[C@H]2O[C@H](CO)[C@@H](O)[C@H](O)[C@H]2O)[C@H](O)[C@H]1O [DDM, n-dodecyl-β-D-maltopyranoside, reference compound]
CMC value [1]: 170 µM | CMC ([1]; aqueous solution): ~0.17 mM | CMC (% by weight) ([1]; aqueous solution): Approximately 0.0087 % by weight | Rh (nm), hydrodynamic radius of micelles [2]: 3.4 nm and 3.4 ± 0.03 nm | Bor1 extraction efficiency (boron transporter (Bor1); 1% by weight detergent, membranes with Bor1-GFP): 80% | level of Bor1 protein aggregation after heat treatment (boron transporter (Bor1); hFSEC): significant level of protein aggregation

Second part, led by results:

CMC ([1]; aqueous solution): ~0.003 mM | Rh (nm), hydrodynamic radius of micelles [2]: 3.5 nm and 3.5 ± 0.1 nm
Structure (SMILES): CCCCCCCCCCCCCCCO[C@H]([C@@H](OCCCCCCCCCCCCCCC)[C@H](CO[C@@H]1OC(CO)[C@@H](O)C(O)C1O)O[C@@H]1OC(CO)[C@@H](O)C(O)C1O)[C@H](CO[C@@H]1OC(CO)[C@@H](O)C(O)C1O)O[C@@H]1OC(CO)[C@@H](O)C(O)C1O (some centres unmarked) [MNA-8]

CMC ([1]; aqueous solution): ~0.15 mM | Rh (nm), hydrodynamic radius of micelles [2]: 2.3 nm and 2.3 ± 0.13 nm
Structure (SMILES): CCCCCCCCO[C@H]([C@@H](OCCCCCCCC)[C@H](CO[C@@H]1OC(CO)[C@@H](O)C(O)C1O)O[C@@H]1OC(CO)[C@@H](O)C(O)C1O)[C@H](CO[C@@H]1OC(CO)[C@@H](O)C(O)C1O)O[C@@H]1OC(CO)[C@@H](O)C(O)C1O (some centres unmarked) [MNA-1]

CMC ([1]; aqueous solution): ~0.05 mM | Rh (nm), hydrodynamic radius of micelles [2]: 2.5 nm and 2.5 ± 0.05 nm
Structure (SMILES): CCCCCCCCCO[C@H]([C@@H](OCCCCCCCCC)[C@H](CO[C@@H]1OC(CO)[C@@H](O)C(O)C1O)O[C@@H]1OC(CO)[C@@H](O)C(O)C1O)[C@H](CO[C@@H]1OC(CO)[C@@H](O)C(O)C1O)O[C@@H]1OC(CO)[C@@H](O)C(O)C1O (some centres unmarked) [MNA-2]

CMC ([1]; aqueous solution): ~0.006 mM | Rh (nm), hydrodynamic radius of micelles [2]: 2.9 nm and 2.9 ± 0.12 nm
Structure (SMILES): CCCCCCCCCCCO[C@H]([C@@H](OCCCCCCCCCCC)[C@H](CO[C@@H]1OC(CO)[C@@H](O)C(O)C1O)O[C@@H]1OC(CO)[C@@H](O)C(O)C1O)[C@H](CO[C@@H]1OC(CO)[C@@H](O)C(O)C1O)O[C@@H]1OC(CO)[C@@H](O)C(O)C1O (some centres unmarked) [MNA-4]
level of Bor1 protein aggregation after heat treatment (boron transporter (Bor1); hFSEC): level of protein aggregation similar to DDM

CMC value [1]: 1 µM | CMC ([1]; aqueous solution): ~0.001 mM | Rh (nm), hydrodynamic radius of micelles [2]: 4.1 nm and 4.1 ± 0.2 nm
Structure (SMILES): CCCCCCCCCCCCCCCCCO[C@H]([C@@H](OCCCCCCCCCCCCCCCCC)[C@H](CO[C@@H]1OC(CO)[C@@H](O)C(O)C1O)O[C@@H]1OC(CO)[C@@H](O)C(O)C1O)[C@H](CO[C@@H]1OC(CO)[C@@H](O)C(O)C1O)O[C@@H]1OC(CO)[C@@H](O)C(O)C1O (some centres unmarked) [MNA-10]

CMC value [1]: 2 µM | CMC ([1]; aqueous solution): ~0.002 mM | Rh (nm), hydrodynamic radius of micelles [2]: 3.3 nm and 3.3 ± 0.04 nm | level of Bor1 protein aggregation after heat treatment (boron transporter (Bor1); hFSEC): lower level of Bor1 aggregation than DDM | effect on stabilization of Bor1 (boron transporter (Bor1); hFSEC, aggregation level and size of target protein peak): best effect on stabilization of the Bor1 | stability of β2AR [3]: secured for a prolonged period of time
Structure (SMILES): CCCCCCCCCCCCCO[C@H]([C@@H](OCCCCCCCCCCCCC)[C@H](CO[C@@H]1OC(CO)[C@@H](O)C(O)C1O)O[C@@H]1OC(CO)[C@@H](O)C(O)C1O)[C@H](CO[C@@H]1OC(CO)[C@@H](O)C(O)C1O)O[C@@H]1OC(CO)[C@@H](O)C(O)C1O (some centres unmarked) [MNA-6]
size of β2AR protein-detergent complexes (PDCs) [4]: smaller in size compared to those formed by DDM | EM image background of dissolved β2AR [5]: uniform background clutter that were relatively smaller in quantity
